CC1(C)COP(=O)(C(C)(C)O)OC1
Settings | solubility (mole fraction)
in 1,2-dichloroethane, 283.65 K | 0.00134
in 1,2-dichloroethane, 288.55 K | 0.00156
in 1,2-dichloroethane, 293.65 K | 0.00196
in 1,2-dichloroethane, 298.25 K | 0.00249
in 1,2-dichloroethane, 303.15 K | 0.00308
in 1,2-dichloroethane, 308.05 K | 0.00418
in 1,2-dichloroethane, 313 K | 0.00519
in 1,2-dichloroethane, 317.8 K | 0.00654
in 1,2-dichloroethane, 322.7 K | 0.00788
in acetone, 278.15 K | 0.0024
in acetone, 283.65 K | 0.00286
in acetone, 288.25 K | 0.00329
in acetone, 293.75 K | 0.00415
in acetone, 298.65 K | 0.00505
in acetone, 303.15 K | 0.00596
in acetone, 308.05 K | 0.007
in acetone, 312.95 K | 0.00821
in acetone, 317.75 K | 0.00998
in acetone, 322.55 K | 0.0118
in acetonitrile, 278.65 K | 0.00174
in acetonitrile, 283.65 K | 0.00222
in acetonitrile, 288.85 K | 0.00295
in acetonitrile, 293.75 K | 0.00357
in acetonitrile, 298.25 K | 0.00413
in acetonitrile, 303.2 K | 0.00513
in acetonitrile, 308.15 K | 0.00629
in acetonitrile, 312.9 K | 0.00754
in acetonitrile, 318.3 K | 0.00901
in acetonitrile, 322.8 K | 0.0111
in acetonitrile, 328 K | 0.0135
in acetonitrile, 332.65 K | 0.0165
in chloroform, 278.9 K | 0.0132
in chloroform, 283.85 K | 0.0139
in chloroform, 288.55 K | 0.0147
in chloroform, 293.85 K | 0.0174
in chloroform, 298.3 K | 0.0212
in chloroform, 303.25 K | 0.0244
in chloroform, 308.05 K | 0.0302
in chloroform, 313.15 K | 0.0364
in chloroform, 317.75 K | 0.0421
in chloroform, 322.75 K | 0.0508
in ethanol, 278.85 K | 0.0199
in ethanol, 283.75 K | 0.023
in ethanol, 288.55 K | 0.0265
in ethanol, 293.65 K | 0.0315
in ethanol, 298.35 K | 0.0349
in ethanol, 303.55 K | 0.0403
in ethanol, 308.55 K | 0.046
in ethanol, 313.25 K | 0.0528
in ethanol, 318.05 K | 0.0592
in ethanol, 323.15 K | 0.065
in ethyl acetate, 293.75 K | 0.00129
in ethyl acetate, 298.35 K | 0.00141
in ethyl acetate, 303.35 K | 0.00187
in ethyl acetate, 308.15 K | 0.00231
in ethyl acetate, 313.35 K | 0.0028
in ethyl acetate, 318 K | 0.00372
in ethyl acetate, 322.75 K | 0.00445
in ethyl acetate, 328.25 K | 0.00563
in ethyl acetate, 333.55 K | 0.00714
in ethyl acetate, 337.65 K | 0.00819
in ethyl acetate, 342.85 K | 0.0102
in methanol, 279.05 K | 0.0374
in methanol, 283.75 K | 0.0416
in methanol, 288.25 K | 0.0472
in methanol, 293.75 K | 0.0527
in methanol, 298.65 K | 0.0577
in methanol, 303.25 K | 0.0653
in methanol, 308.45 K | 0.0725
in methanol, 312.95 K | 0.0792
in methanol, 317.75 K | 0.0862
in methanol, 322.65 K | 0.0968
in water, 283.55 K | 0.00713
in water, 288.85 K | 0.00723
in water, 294.7 K | 0.007
in water, 298.25 K | 0.00711
in water, 303.3 K | 0.00736
in water, 308.25 K | 0.00757
in water, 313.35 K | 0.00805
in water, 318.3 K | 0.00861
in water, 323.15 K | 0.00911
in water, 328.05 K | 0.0102
in water, 332.9 K | 0.0112
in water, 338.15 K | 0.0128
in water, 343.15 K | 0.0142
